Results taken from ChEMBL document CHEMBL3784925, “Discovery of a New Inhibitor of Myeloid Differentiation 2 from Cinnamamide Derivatives with Anti-Inflammatory Activity in Sepsis and Acute Lung Injury” (J Med Chem, 2016).
Calls of active or inactive are those of the source. The calls are words filed in the database; no cut-off is given here.

Legend:
[1] = Cytotoxicity against C57BL/6 mouse primary peritoneal macrophages assessed as reduction in cell viability at 10 uM after 24 hrs by MTT assay; type: cell-based; conditions: peritoneal macrophage cell
[2] = target: T1, Lymphocyte antigen 96 (Homo sapiens) (UniProt Q9Y6Y9); experiment: Binding affinity to recombinant human MD2 (17 to 160 residues) expressed in Escherichia coli BL21(DE3) cells at 6.25 to 100 uM by surface plasmon resonance analysis
T1 sequence (whole entry): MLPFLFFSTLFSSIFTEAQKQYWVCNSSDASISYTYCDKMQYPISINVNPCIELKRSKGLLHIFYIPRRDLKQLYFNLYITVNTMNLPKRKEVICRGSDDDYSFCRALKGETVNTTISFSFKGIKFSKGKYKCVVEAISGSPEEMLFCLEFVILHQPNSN

[3] = target: Toll-like receptor 2 (Mus musculus) (UniProt Q9QUN7); experiment: Inhibition of TLR2 in mouse RAW264.7 cells assessed as inhibition of Pam3CK-induced IL-6 level at 5 to 10 uM preincubated for 2 hrs followed by Pam3CK addition measured after 12 hrs by ELISA; type: cell-based
Sequence of Toll-like receptor 2 (Mus musculus) (Q9QUN7 whole entry): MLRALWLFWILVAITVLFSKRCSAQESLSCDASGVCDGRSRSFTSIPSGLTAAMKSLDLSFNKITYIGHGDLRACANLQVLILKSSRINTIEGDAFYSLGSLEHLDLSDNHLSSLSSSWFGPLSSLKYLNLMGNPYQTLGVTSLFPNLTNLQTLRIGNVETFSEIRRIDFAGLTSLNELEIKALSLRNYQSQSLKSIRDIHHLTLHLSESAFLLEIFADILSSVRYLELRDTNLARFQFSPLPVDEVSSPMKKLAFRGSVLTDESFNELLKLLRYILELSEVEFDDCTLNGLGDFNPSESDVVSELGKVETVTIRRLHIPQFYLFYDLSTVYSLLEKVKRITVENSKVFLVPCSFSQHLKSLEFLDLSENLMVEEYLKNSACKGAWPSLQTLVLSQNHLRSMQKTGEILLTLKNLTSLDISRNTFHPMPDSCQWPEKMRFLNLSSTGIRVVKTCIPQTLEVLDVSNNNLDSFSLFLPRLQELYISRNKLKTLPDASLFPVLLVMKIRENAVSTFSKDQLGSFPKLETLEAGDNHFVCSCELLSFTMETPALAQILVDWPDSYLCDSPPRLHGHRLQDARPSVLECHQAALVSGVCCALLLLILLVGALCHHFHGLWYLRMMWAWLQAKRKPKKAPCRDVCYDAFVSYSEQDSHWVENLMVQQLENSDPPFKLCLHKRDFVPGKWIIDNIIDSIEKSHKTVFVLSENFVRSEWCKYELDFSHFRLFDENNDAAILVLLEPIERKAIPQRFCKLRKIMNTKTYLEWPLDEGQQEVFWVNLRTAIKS

[4] = target: Toll-like receptor 2 (Mus musculus) (UniProt Q9QUN7); experiment: Inhibition of TLR2 in mouse RAW264.7 cells assessed as inhibition of Pam3CK-induced TNF-alpha level at 5 to 10 uM preincubated for 2 hrs followed by Pam3CK addition measured after 12 hrs by ELISA; type: cell-based
[5] = tested on: Mus musculus; experiment: Antiinflammatory activity in LPS-induced septic shock C57BL/6 mouse model assessed as mouse survival at 10 mg/kg, iv treated 15 mins before LPS challenge measured for 7 days relative to control; type: functional; conditions: C57BL/6, iv
[6] = tested on: Mus musculus; experiment: Antiinflammatory activity in acute lung injury C57BL/6 mouse model assessed as inhibition of LPS-induced increase in protein concentration in bronchoalveolar lavage fluid at 20 mg/kg, po treated 15 mins before LPS challenge measured after 6 hrs; type: functional, organism-based
[7] = tested on: Mus musculus; experiment: Antiinflammatory activity in acute lung injury C57BL/6 mouse model assessed as inhibition of LPS-induced lung edema at 20 mg/kg, po treated 15 mins before LPS challenge measured after 6 hrs; type: functional, organism-based
[8] = tested on: Mus musculus; experiment: Antiinflammatory activity in acute lung injury C57BL/6 mouse model assessed as inhibition of LPS-induced increase in neutrophil level in bronchoalveolar lavage fluid at 20 mg/kg, po treated 15 mins before LPS challenge measured after 6 hrs by wright-gimesa staining based assay; type: functional, organism-based
[9] = tested on: Mus musculus; experiment: Antiinflammatory activity in acute lung injury C57BL/6 mouse model assessed as inhibition of LPS-induced increase in total cells in bronchoalveolar lavage fluid at 20 mg/kg, po treated 15 mins before LPS challenge measured after 6 hrs by cell counting method; type: functional, organism-based
[10] = tested on: Mus musculus; experiment: Antiinflammatory activity in acute lung injury C57BL/6 mouse model assessed as inhibition of LPS-induced MPO activity in lung tissues at 20 mg/kg, po treated 15 mins before LPS challenge measured after 6 hrs; type: functional, organism-based
[11] = tested on: Mus musculus; experiment: Antiinflammatory activity in acute lung injury C57BL/6 mouse model assessed as inhibition of LPS-induced pulmonary congestion at 20 mg/kg, po treated 15 mins before LPS challenge measured after 6 hrs by hematoxylin and eosin staining based light microscopic analysis; type: functional, organism-based
[12] = tested on: Mus musculus; experiment: Antiinflammatory activity in acute lung injury C57BL/6 mouse model assessed as inhibition of LPS-induced thickening of alveolar wall at 20 mg/kg, po treated 15 mins before LPS challenge measured after 6 hrs by hematoxylin and eosin staining based light microscopic analysis; type: functional, organism-based
[13] = tested on: Mus musculus; experiment: Antiinflammatory activity in acute lung injury C57BL/6 mouse model assessed as inhibition of LPS-induced infiltration of inflammatory cells at 20 mg/kg, po treated 15 mins before LPS challenge measured after 6 hrs by hematoxylin and eosin staining based light microscopic analysis; type: functional, organism-based
[14] = tested on: Mus musculus; experiment: (§1) Antiinflammatory activity in acute lung injury C57BL/6 mouse model assessed as inhibition of LPS-induced IL-6 mRNA expression in lung tissues at 20 mg/kg, po treated 15 mins before LPS challenge measured after 6 hrs; type: functional, organism-based
[15] = tested on: Mus musculus; experiment: Antiinflammatory activity in acute lung injury C57BL/6 mouse model assessed as inhibition of LPS-induced interstitial edema at 20 mg/kg, po treated 15 mins before LPS challenge measured after 6 hrs by hematoxylin and eosin staining based light microscopic analysis; type: functional, organism-based
[16] = tested on: Mus musculus; experiment: Antiinflammatory activity in acute lung injury C57BL/6 mouse model assessed as inhibition of LPS-induced TNF-alpha mRNA expression in lung tissues at 20 mg/kg, po treated 15 mins before LPS challenge measured after 6 hrs; type: functional, organism-based
[17] = tested on: Mus musculus; experiment: Antiinflammatory activity in acute lung injury C57BL/6 mouse model assessed as inhibition of LPS-induced IL-1beta mRNA expression in lung tissues at 20 mg/kg, po treated 15 mins before LPS challenge measured after 6 hrs; type: functional, organism-based
[18] = tested on: Mus musculus; experiment: In vivo inhibition of LPS-induced MD2/TLR4 complex formation in lung tissues of acute lung injury C57BL/6 mouse model at 20 mg/kg, po treated 15 mins before LPS challenge measured after 6 hrs by immunoprecipitation assay; type: functional, organism-based
[19] = Cmax in Sprague-Dawley rat plasma at 20 mg/kg, po measured immediately post treatment by UPLC analysis; type: ADME, organism-based; design: dose 20 mg/kg, route oral
[20] = Cmax in Sprague-Dawley rat plasma at 20 mg/kg, po after 12 hrs by UPLC analysis; type: ADME, organism-based; design: dose 20 mg/kg, route oral
[21] = Cmax in Sprague-Dawley rat plasma at 10 mg/kg, iv measured immediately post treatment by UPLC analysis; type: ADME, organism-based; design: dose 10 mg/kg, route intravenous
[22] = Cmax in Sprague-Dawley rat plasma at 10 mg/kg, iv after 24 hrs by UPLC analysis; type: ADME, organism-based; design: dose 10 mg/kg, route intravenous
[23] = tested on: Mus musculus; experiment: as §1, with “macrophage infilteration by measuring reduction in CD68” for “IL-6 mRNA”, “hrs by DAB staining based immunohistochemical analysis” for “hrs”; type: functional, organism-based
[24] = target: Mitogen-activated protein kinase 9 (Homo sapiens) (UniProt P45984); experiment: Inhibition of recombinant human N-terminal GST-tagged JNK2 catalytic domain (1 to 364 residues) expressed in Escherichia coli using modified erktide as substrate at 0.05 to 50 uM after 1 hr by microfluidic assay
Sequence of Mitogen-activated protein kinase 9 (Homo sapiens) (P45984 whole entry, looked up, the tested form may be a part): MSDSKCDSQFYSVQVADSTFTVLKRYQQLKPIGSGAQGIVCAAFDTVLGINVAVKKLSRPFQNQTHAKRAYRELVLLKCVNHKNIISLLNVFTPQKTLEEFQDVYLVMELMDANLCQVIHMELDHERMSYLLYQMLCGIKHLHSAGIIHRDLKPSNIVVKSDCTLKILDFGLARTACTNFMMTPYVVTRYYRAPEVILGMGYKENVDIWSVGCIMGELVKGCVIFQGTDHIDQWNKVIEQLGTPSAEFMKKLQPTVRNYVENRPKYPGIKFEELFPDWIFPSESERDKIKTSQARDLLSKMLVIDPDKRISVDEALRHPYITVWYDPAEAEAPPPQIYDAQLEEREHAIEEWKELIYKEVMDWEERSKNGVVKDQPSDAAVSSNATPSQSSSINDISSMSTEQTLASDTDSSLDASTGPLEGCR

[25] = target: Mitogen-activated protein kinase 3 (Homo sapiens) (UniProt P27361); experiment: Inhibition of full length recombinant human N-terminal GST-tagged ERK1 (1 to 379 residues) expressed in Escherichia coli using modified erktide as substrate at 0.05 to 50 uM after 1 hr by microfluidic assay
Sequence of Mitogen-activated protein kinase 3 (Homo sapiens) (P27361 whole entry, the tested form may be a part): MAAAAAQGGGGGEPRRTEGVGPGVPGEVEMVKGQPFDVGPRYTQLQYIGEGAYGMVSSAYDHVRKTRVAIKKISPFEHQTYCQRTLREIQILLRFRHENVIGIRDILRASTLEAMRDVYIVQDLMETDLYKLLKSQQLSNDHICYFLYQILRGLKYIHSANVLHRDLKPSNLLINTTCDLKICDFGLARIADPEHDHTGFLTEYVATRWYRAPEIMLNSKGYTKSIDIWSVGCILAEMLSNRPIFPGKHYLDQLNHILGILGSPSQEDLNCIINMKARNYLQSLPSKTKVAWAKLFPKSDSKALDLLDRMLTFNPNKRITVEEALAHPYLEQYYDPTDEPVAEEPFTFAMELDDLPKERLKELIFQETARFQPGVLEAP

[26] = target: Mitogen-activated protein kinase 14 (Homo sapiens) (UniProt Q16539); experiment: Inhibition of recombinant human N-terminal GST-tagged p38-alpha (9 to 352 residues) expressed in Escherichia coli using modified erktide as substrate at 0.05 to 50 uM after 1 hr by microfluidic assay
Sequence of Mitogen-activated protein kinase 14 (Homo sapiens) (Q16539 whole entry, the tested form may be a part): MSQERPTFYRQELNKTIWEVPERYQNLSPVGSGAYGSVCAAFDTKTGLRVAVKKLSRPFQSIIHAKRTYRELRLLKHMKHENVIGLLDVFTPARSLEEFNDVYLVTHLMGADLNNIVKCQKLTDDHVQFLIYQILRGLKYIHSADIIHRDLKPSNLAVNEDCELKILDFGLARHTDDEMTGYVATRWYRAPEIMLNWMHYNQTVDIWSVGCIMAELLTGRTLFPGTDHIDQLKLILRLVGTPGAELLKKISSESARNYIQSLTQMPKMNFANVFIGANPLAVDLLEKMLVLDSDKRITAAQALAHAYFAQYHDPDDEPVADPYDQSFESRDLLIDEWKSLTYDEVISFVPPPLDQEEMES

[27] = target: Mitogen-activated protein kinase 11 (Homo sapiens) (UniProt Q15759); experiment: Inhibition of full length recombinant human N-terminal GST-tagged p38-beta (1 to 364 residues) expressed in Escherichia coli using modified erktide as substrate at 0.05 to 50 uM after 1 hr by microfluidic assay
Sequence of Mitogen-activated protein kinase 11 (Homo sapiens) (Q15759 whole entry, the tested form may be a part): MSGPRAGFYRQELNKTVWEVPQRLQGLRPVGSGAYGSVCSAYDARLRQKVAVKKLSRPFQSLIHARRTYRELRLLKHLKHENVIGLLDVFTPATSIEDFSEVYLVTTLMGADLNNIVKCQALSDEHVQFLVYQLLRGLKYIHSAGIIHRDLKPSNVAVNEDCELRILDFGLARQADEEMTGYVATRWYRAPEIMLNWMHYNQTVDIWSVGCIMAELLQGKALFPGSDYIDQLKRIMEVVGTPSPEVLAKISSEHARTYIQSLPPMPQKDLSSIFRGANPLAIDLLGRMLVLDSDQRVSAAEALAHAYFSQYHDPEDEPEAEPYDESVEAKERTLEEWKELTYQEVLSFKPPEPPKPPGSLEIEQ

[28] = target: T2, Inhibitor of nuclear factor kappa-B kinase subunit beta (Homo sapiens) (UniProt O14920); experiment: Inhibition of recombinant human N-terminal His-tagged IKKbeta (1 to 662 residues) expressed in baculovirus expression system using modified IkBalpha-derived peptide as substrate at 0.05 to 50 uM after 1 hr by microfluidic assay
T2 sequence (whole entry): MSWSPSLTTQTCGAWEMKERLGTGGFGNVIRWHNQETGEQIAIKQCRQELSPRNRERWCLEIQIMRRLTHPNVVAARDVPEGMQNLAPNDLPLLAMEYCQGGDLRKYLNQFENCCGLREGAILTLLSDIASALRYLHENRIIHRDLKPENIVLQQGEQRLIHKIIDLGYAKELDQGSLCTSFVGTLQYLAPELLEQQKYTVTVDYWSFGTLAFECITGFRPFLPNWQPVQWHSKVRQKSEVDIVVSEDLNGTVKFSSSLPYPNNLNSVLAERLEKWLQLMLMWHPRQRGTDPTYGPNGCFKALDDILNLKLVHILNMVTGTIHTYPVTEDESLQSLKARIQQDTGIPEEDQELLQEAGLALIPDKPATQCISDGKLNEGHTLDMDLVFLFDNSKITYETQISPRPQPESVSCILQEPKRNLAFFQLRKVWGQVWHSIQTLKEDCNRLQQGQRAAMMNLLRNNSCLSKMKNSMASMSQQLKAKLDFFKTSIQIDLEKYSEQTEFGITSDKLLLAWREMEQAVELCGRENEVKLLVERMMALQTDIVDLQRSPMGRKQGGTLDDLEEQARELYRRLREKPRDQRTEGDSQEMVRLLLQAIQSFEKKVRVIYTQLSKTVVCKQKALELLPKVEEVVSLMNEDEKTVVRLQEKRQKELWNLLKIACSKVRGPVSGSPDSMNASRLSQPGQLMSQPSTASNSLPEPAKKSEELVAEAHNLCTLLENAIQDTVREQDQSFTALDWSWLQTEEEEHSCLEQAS

[29] = target: Toll-like receptor 4 (Homo sapiens) (UniProt O00206); experiment: Binding affinity to recombinant human TLR4 at 6.25 to 100 uM by surface plasmon resonance analysis
Sequence of Toll-like receptor 4 (Homo sapiens) (O00206 whole entry): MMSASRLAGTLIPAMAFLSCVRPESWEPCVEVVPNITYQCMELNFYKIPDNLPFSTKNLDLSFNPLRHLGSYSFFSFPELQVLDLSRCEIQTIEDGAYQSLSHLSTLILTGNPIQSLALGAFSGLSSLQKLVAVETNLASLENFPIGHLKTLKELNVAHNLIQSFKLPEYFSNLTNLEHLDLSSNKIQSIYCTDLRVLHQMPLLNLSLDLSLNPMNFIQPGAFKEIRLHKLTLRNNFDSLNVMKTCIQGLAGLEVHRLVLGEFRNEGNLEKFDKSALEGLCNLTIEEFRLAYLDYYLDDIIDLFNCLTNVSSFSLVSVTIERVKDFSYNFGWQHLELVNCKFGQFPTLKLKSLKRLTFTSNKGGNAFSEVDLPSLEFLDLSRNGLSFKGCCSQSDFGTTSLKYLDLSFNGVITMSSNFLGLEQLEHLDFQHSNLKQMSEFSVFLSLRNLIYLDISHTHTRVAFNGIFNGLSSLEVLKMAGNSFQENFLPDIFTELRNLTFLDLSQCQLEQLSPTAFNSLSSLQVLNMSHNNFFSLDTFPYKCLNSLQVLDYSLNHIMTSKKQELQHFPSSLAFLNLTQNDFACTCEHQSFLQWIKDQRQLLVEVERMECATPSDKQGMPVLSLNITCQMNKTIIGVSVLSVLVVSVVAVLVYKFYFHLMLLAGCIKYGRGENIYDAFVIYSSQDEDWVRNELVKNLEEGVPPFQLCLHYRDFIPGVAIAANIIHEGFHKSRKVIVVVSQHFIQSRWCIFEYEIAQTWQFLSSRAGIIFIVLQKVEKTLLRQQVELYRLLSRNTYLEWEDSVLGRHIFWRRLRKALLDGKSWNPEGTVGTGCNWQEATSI

[30] = target: T3, Lymphocyte antigen 96 (Mus musculus) (UniProt Q9JHF9); experiment: Inhibition of MD2/TLR4 complex formation in C57BL/6 mouse primary peritoneal macrophages assessed as reversal of LPS-induced […] at 10 uM preincubated for 30 mins followed by LPS addition measured after 1 hr by DAPI staining based fluorescence microscopic analysis
T3 sequence (whole entry): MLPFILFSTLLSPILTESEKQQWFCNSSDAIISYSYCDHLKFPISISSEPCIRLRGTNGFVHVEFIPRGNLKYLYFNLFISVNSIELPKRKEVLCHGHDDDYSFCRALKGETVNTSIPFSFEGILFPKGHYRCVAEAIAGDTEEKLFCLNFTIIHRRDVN

CCCCNC(=O)/C=C/c1cccc(Cl)c1Cl
Activity [1]: Non-toxic

CCCCNC(=O)/C=C/c1ccc(O)c(OC)c1
Activity [1]: Non-toxic

COc1cc(/C=C/C(=O)NCc2ccc(Cl)cc2)ccc1O
Activity [1]: Non-toxic

O=C(/C=C/c1cccc(Cl)c1Cl)NCc1ccc(Cl)cc1
Activity [1]: Non-toxic

COc1ccc(CCNC(=O)/C=C/c2ccc(O)c(OC)c2)cc1
Activity [1]: Non-toxic

COc1cc(/C=C/C(=O)NCCCc2ccccc2)ccc1O
Activity [1]: Non-toxic

COc1cc(/C=C/C(=O)NCc2ccccc2)ccc1O
Activity [1]: Non-toxic

COc1ccc(CNC(=O)/C=C/c2cccc(Cl)c2Cl)cc1OC
Activity [1]: Non-toxic
Activity [2]: inactive

COc1cc(/C=C/C(=O)NCc2ccc(OC)c(OC)c2)ccc1O
Activity [1]: Non-toxic

COc1cc(/C=C/C(=O)N2CCOCC2)ccc1O
Activity [1]: Non-toxic

COc1ccc(/C=C/C(=O)NCCc2ccccc2)c(OC)c1
Activity [1]: Non-toxic

COc1cc(/C=C/C(=O)NCCc2ccccc2)ccc1O
Activity [1]: Non-toxic

CCCCNC(=O)/C=C/c1ccc(OC)cc1OC
Activity [1]: Non-toxic

COc1ccc(/C=C/C(=O)NCCNC(=O)/C=C/c2ccc(OC)cc2OC)c(OC)c1
inhibition [3]: inactive
inhibition [4]: inactive
survival at 10 mg/kg [5]: 100%
inhibition [6]: Active
inhibition [7]: Active
inhibition [8]: Active
inhibition [9]: Active
inhibition [10]: Active
inhibition [11]: Active
inhibition [12]: Active
inhibition [13]: Active
inhibition [14]: Active
inhibition [15]: Active
inhibition [16]: Active
inhibition [17]: Active
inhibition [18]: Active
Cmax [19]: 270 ng/mL
Cmax [20]: 40 ng/mL
Cmax [21]: 550 ng/mL
Cmax [22]: 40 ng/mL
inhibition [23]: Active
Activity [1]: Non-toxic
inhibition [24]: inactive
inhibition [25]: inactive
inhibition [26]: inactive
inhibition [27]: inactive
inhibition [28]: inactive
Activity [29]: inactive

COc1ccc(/C=C/C(=O)NCc2ccc(F)cc2)c(OC)c1
Activity [1]: Non-toxic

COc1ccc(/C=C/C(=O)NCc2ccccc2)c(OC)c1
Activity [1]: Non-toxic

COc1ccc(/C=C/C(=O)NCCCCCCNC(=O)/C=C/c2ccc(OC)cc2OC)c(OC)c1
Activity [1]: Non-toxic

COc1nccc(-c2c(-c3ccc(F)cc3)ncn2[C@H]2CC[C@H](O)CC2)n1
inhibition [30]: inactive

COc1cc(/C=C/C(=O)NCCCCCCNC(=O)/C=C/c2ccc(O)c(OC)c2)ccc1O
Activity [1]: Non-toxic

COc1cc(/C=C/C(=O)NCc2ccc(F)cc2)ccc1O
Activity [1]: Non-toxic

COc1ccc(CCNC(=O)/C=C/c2ccc(OC)cc2OC)cc1
Activity [1]: Non-toxic

O=C(/C=C/c1cccc(Cl)c1Cl)NCCCCCCNC(=O)/C=C/c1cccc(Cl)c1Cl
Activity [1]: Non-toxic

O=C(/C=C/c1cccc(Cl)c1Cl)NCCCc1ccccc1
Activity [1]: Non-toxic

O=C(/C=C/c1cccc(Cl)c1Cl)NCc1ccc(F)cc1
Activity [1]: Non-toxic

COc1ccc(/C=C/C(=O)NCCCc2ccccc2)c(OC)c1
Activity [1]: Non-toxic

O=C(/C=C/c1cccc(Cl)c1Cl)NCCNC(=O)/C=C/c1cccc(Cl)c1Cl
Activity [1]: Non-toxic

COc1ccc(/C=C/C(=O)NCc2ccc(OC)c(OC)c2)c(OC)c1
Activity [1]: Non-toxic

COc1cc(/C=C/C(=O)NCCNC(=O)/C=C/c2ccc(O)c(OC)c2)ccc1O
Activity [1]: Non-toxic

COc1ccc(/C=C/C(=O)NCc2ccc(Cl)cc2)c(OC)c1
Activity [1]: Non-toxic

COc1cccc(-c2cc(=O)c3ccccc3o2)c1N
inhibition [30]: inactive

O=C(/C=C/c1cccc(Cl)c1Cl)NCc1ccccc1
Activity [1]: Non-toxic

COc1ccc(/C=C/C(=O)N2CCOCC2)c(OC)c1
Activity [1]: Non-toxic

O=C(/C=C/c1cccc(Cl)c1Cl)NCCc1ccccc1
Activity [1]: Non-toxic

O=C(/C=C/c1cccc(Cl)c1Cl)N1CCOCC1
Activity [1]: Non-toxic

COc1ccc(CCNC(=O)/C=C/c2cccc(Cl)c2Cl)cc1
Activity [1]: Non-toxic
